Results from patent publication US8524725B2, “Methods of using diaminopyrimidine as P2X3 and P2X⅔ receptor modulators for treatment of respiratory and gastrointestinal diseases” (Roche Palo Alto LLC, priority 2005, dated 2013).
Counter-ions that a name gives are not always drawn.

Row | melting point | Structure (SMILES)
1 | > 300 °C | COc1cc(Cc2cnc(NCCO)nc2N)c(C(C)C)cc1OC (as salt: HCl)
2 | 111.4 to 116.9 °C | COc1cc(C(C)C)c(Oc2cnc(N[C@H](C)CO)nc2N)cc1Cl (as salt: hydrochloride)
3 | 135 to 138.5 °C | COc1cc(C(C)C)c(Oc2cnc(N)nc2N)cc1Cl (as salt: trifluoroacetic acid salt)
4 | 63.5 to 69.4 °C | CNC(=O)OC[C@@H](C)Nc1ncc(Oc2cc(Cl)c(OC)cc2C(C)C)c(N)n1 (stereo in doubt)
